Assay results as given in US20210138090A1, “uPAR targeting peptide for use in peroperative optical imaging of invasive cancer” (FLUOGUIDE A/S, priority 2014, published 2021).
Each block holds one compound with its values, some of them ahead of it. Square brackets hold non-standard residues; d marks the D form. Primed or numbered codes have the meaning given here. Peptide text beside a SMILES is read from it. * marks the point of attachment. ξ: configuration not given here. X1 = CC1(C)C(/C=C/C=C/C=C/C=C2\N(CCCCCC(=O)*)c3ccc4ccccc4c3C2(C)C)=[N+](CCCCS(=O)(=O)[O-])c2ccc3ccccc3c21; Cha = N[C@@H](CC1CCCCC1)C(=O)O; IRDye800CW′ = not defined here; ξR = N=C(N)NCCCC(N)C(=O)O; ξF = NC(Cc1ccccc1)C(=O)O; ξE = NC(CCC(=O)O)C(=O)O; ξD = NC(CC(=O)O)C(=O)O; AEEA = NCCOCCOCC(=O)O; ξS = NC(CO)C(=O)O

Key:
purified uPAR = purified uPAR (Homo sapiens, UniProt Q03405); assay: binding affinity towards purified uPAR (first example)
Chain of purified uPAR (Q03405 23-305): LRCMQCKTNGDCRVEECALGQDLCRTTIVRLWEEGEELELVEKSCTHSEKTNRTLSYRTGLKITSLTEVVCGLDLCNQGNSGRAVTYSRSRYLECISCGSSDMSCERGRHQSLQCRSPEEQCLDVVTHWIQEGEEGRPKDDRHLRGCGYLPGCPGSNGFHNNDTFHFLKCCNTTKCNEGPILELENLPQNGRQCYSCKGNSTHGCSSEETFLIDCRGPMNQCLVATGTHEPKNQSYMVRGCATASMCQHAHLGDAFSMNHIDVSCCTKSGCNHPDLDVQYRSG

uPAR H47C-N259C = uPAR H47C-N259C (Homo sapiens, UniProt Q03405, H69C/N281C); assay: SPR inhibition of uPAR binding to immobilized uPA, constrained uPAR variant (negative control); details: SPR, constrained uPAR variant, negative control; read-out: IC50 uPAR H47C-N259C
Chain of uPAR H47C-N259C (Q03405 23-305 H69C/N281C limits assumed): as the sequence (Q03405 23-305) above, with H47C, N259C counted along it
Protocol: (§1) Covalent immobilization of purified human prouPA^S356A—was accomplished by injecting 12.5 μg/ml protein dissolved in 10 mM sodium acetate (pH 5.0) over a CM5 chip that had been pre-activated with NHS/EDC (N-ethyl-N′-[3-[…])propyl]-carbodiimide), aiming at a surface density of >5000 resonance units (RU) corresponding to 100 fmols/mm^2. After coupling the sensorchip was deactivated with 1 M ethanolamine. Binding of purified human uPAR as analyte was measured from 4 nM to 0.25 nM at 20° C. using 10 mM HEPES, 150 mM NaCl, 3 mM EDTA (pH 7.4) containing 0.05% (v/v) surfactant P20 as running buffer at a flow rate of 50 μl/min. In between cycles the sensorchip was regenerated by two consecutive 10-μl injections of 0.1 M acetic acid/HCl (pH 2.5) in 0.5 M NaCl. The inhibition of 3-fold dilutions of the compounds in question was measured for 4 nM uPAR with identical running conditions. All experiments were performed on a BiacoreT200 instrument.
(§2) For each inhibition peptide inhibition profile of uPAR binding to immobilized uPA there has been run a preceding standard curve and all calculations are based on the that standard curve.
Surface plasmon resonance (SPR) was applied to determine the […]-value of IRDye800-AE344 on the uPAR⋅uPA interaction in solution using a Biacore 3000 instrument essentially as described. In brief; pro-uPA^S356A, which is the natural ligand for uPAR. […] The analysis was carried out by measuring vobs of a fixed uPAR concentration (2 nM) incubated with a 3-fold dilution series of IRDye800-AE344 (ranging from 0.076 nM to 1.5 μM) for 300 sec at 20° C. with a flow rate of 50 μL/min. A standard curve was measured in parallel (2-fold dilution of uPAR covering 0.06 nM to 2 nM) including one repeated concentration point at the end to validate the biological integrity of the sensor chip. […] The parent nonamer peptide antagonist AE105 (Asp-Cha-Phe-D-Ser-D-Arg-Tyr-Leu-Trp-Ser-OH) was analyzed in parallel as positive control and the closed uPAR^H47C-N259C was used as negative control as its uPA binding cavity cannot accommodate AE105.

uPAR wt = uPAR wt (Homo sapiens, UniProt Q03405); assay: SPR inhibition of uPAR binding to immobilized uPA
Chain of uPAR wt (Q03405 23-305 limits assumed): as the sequence (Q03405 23-305) above
Protocol: as §1, §2
Surface plasmon resonance (SPR) was applied to determine the […]-value of IRDye800-AE344 on the uPAR⋅uPA interaction in solution using a Biacore 3000 instrument essentially as described. In brief; pro-uPA^S356A, which is the natural ligand for uPAR. […] The analysis was carried out by measuring vobs of a fixed uPAR concentration (2 nM) incubated with a 3-fold dilution series of IRDye800-AE344 (ranging from 0.076 nM to 1.5 μM) for 300 sec at 20° C. with a flow rate of 50 μL/min. A standard curve was measured in parallel (2-fold dilution of uPAR covering 0.06 nM to 2 nM) including one repeated concentration point at the end to validate the biological integrity of the sensor chip. Running buffer contained 10 mM HEPES, 150 mM NaCl, 3 mM EDTA and 0.05% (v/v) surfactant P20, pH 7.4. The sensor chip was regenerated with two injections of 0.1 M acetic acid, 0.5 M NaCl. The parent nonamer peptide antagonist AE105 (Asp-Cha-Phe-D-Ser-D-Arg-Tyr-Leu-Trp-Ser-OH) was analyzed in parallel as positive control and the closed uPAR^H47C-N259C was used as negative control as its uPA binding cavity cannot accommodate AE105.

U87MG tumours [1] = assay: optical imaging of U87MG tumour-bearing mice, IVIS Lumina XR; format: in vivo; details: 10 nmol i.v., 15 hr post injection; for max radiance for the tumors / tumor-to-background (TBR) ratio: IVIS Lumina XR; for tumor-to-background (TBR) ratio: n=10
Protocol: (§3) All animal experiments were performed under a protocol approved by the Animal Research Committee of the Danish Ministry of Justice. 5*10^6 U87MG cells were suspended in 200 μl PBS and inoculated on both flanks of the mouse. When the tumours reached an appropriate size the mice were imaged with AE105-Glu-Glu-ICG.
The mice were injected with 10 nmol of AE105-Glu-Glu-ICG or ICG i.v., and imaged 15 hr post injection. Before scan the mice were anaesthetized with 2% isofluran and positioned in a prone position. For imaging the IVIS Lumina XR and the acquisition software Living Image were used. The excitation filter was set to 710 nm and the emission filter was set in the ICG position. Acquisition was set to auto-settings to achieve the best acquisition as possible.
(§4) The TBR values were calculated by drawing a ROI over each tumor and place the background ROI in an area with constant background signal.

U87MG tumours [2] = assay: optical imaging of U87MG tumour-bearing mice, Fluobeam camera; format: in vivo; details: 10 nmol i.v.
Protocol: as §3
After imaging with IVIS Lumina XR the mouse was moved to a Fluobeam setup and imaged with appropriate acquisition time.
as §4

[3] = comparison of fluorescence intensity of ICG and ICG-Glu-Glu-AE105; format: physicochemical; details: data not shown
[4] = test system: orthotopic GBM (U-87 MG-luc2 cells); assay: in vivo binding specificity in orthotopic GBM (blocking with AE120, scrambled probe); parameters: species or system mice; details: 3 nmol, 1 h, no blocking
Protocol: The target specificity to uPAR was evaluated by two different methods: competitive blocking with the uPAR targeting peptide AE120 ((DChaFsrYLWSG)2-βAK) and IRDye800 conjugated to a scrambled peptide, AE354 (IRDye800CW-Glu-Glu-NH—CH2—CH2—O—CH2—CH2—O—CH2—CO—NH—CH2—CH2—O—CH2—CH2—O—CH2—CO-Asp-Cha-Glu-(D)Ser-(D)Arg-Tyr-Leu-Glu-Ser-OH) with similar peptide length as the active peptide. The competitive blocking dose of 1.4-2.8 mg AE120 was injected intraperitoneally 15-30 min prior to intravenous injection of 3 nmol IRDye800CW-AE344 and imaged at 1 h (n=5). The scrambled peptide was administered at 3 nmol and the animals were imaged after 1 h (n=4).
Images were analyzed and processed in ImageJ 1.52a, NIH, USA. Signal measurements were performed on the raw images generated by the Fluoptics system. Tumor signal was measured as a mean fluorescence intensity of the whole tumor and background signal was measured as the mean of a representative area with no tumor on the contralateral hemisphere. Presented pictures are contrast enhanced in ImageJ with the Contrast Enhancement (Saturated pixels: 0.3%).

- IC50 (purified uPAR): ~10 nM
- IC50 (uPAR H47C-N259C): 4500 ± 1500 nM
- IC50 (uPAR wt): 7.8 ± 1 nM
Compound: CC(C)C[C@H](NC(=O)[C@H](Cc1ccc(O)cc1)NC(=O)[C@@H](CCCNC(=N)N)NC(=O)[C@@H](CO)NC(=O)[C@H](Cc1ccccc1)NC(=O)[C@H](CC1CCCCC1)NC(=O)[C@@H](N)CC(=O)O)C(=O)N[C@@H](Cc1c[nH]c2ccccc12)C(=O)N[C@@H](CO)C(=O)O [AE105, Asp-Cha-Phe-(D)Ser-(D)Arg-Tyr-Leu-Trp-Ser-OH, reference compound]

- IC50 (uPAR wt): 5.7 ± 0.5 nM
Compound: CC(C)C[C@H](NC(=O)[C@H](Cc1ccc(O)cc1)NC(=O)[C@@H](CCCNC(=N)N)NC(=O)[C@@H](CO)NC(=O)[C@H](Cc1ccccc1)NC(=O)[C@H](CC1CCCCC1)NC(=O)[C@H](CC(=O)O)NC(=O)COCCOCCNC(=O)COCCOCCNC(=O)[C@H](CCC(=O)O)NC(=O)[C@@H](N)CCC(=O)O)C(=O)N[C@@H](Cc1c[nH]c2ccccc12)C(=O)N[C@@H](CO)C(=O)O [AE344, Glu Glu O2Oc O2Oc Asp Cha Phe D-Ser D-Arg Tyr Leu Trp Ser-OH] (H-EE[AEEA][AEEA]D[Cha]F[dS][dR]YLWS-OH; N-terminus assumed)

- IC50 (uPAR wt): 31.8 ± 1.5 nM
Compound: CC(C)C[C@H](NC(=O)[C@H](Cc1ccc(O)cc1)NC(=O)[C@@H](CCCNC(=N)N)NC(=O)[C@@H](CO)NC(=O)[C@H](Cc1ccccc1)NC(=O)[C@H](CC1CCCCC1)NC(=O)[C@H](CC(=O)O)NC(=O)COCCOCCNC(=O)COCCOCCNC(=O)[C@H](CCC(=O)O)NC(=O)[C@@H](N)CCC(=O)O)C(=O)N[C@@H](Cc1c[nH]c2ccccc12)C(=O)N[C@@H](CO)C(N)=O [AE345, Glu Glu O2Oc O2Oc Asp Cha Phe D-Ser D-Arg Tyr Leu Trp Ser-NH2] (H-EE[AEEA][AEEA]D[Cha]F[dS][dR]YLWS-NH2; N-terminus assumed)

- IC50 (uPAR wt): 16.1 ± 0.9 nM
Compound: CC(C)C[C@H](NC(=O)[C@H](Cc1ccc(O)cc1)NC(=O)[C@@H](CCCNC(=N)N)NC(=O)[C@@H](CO)NC(=O)[C@H](Cc1ccccc1)NC(=O)[C@H](CC1CCCCC1)NC(=O)[C@H](CC(=O)O)NC(=O)COCCOCCNC(=O)COCCOCCN)C(=O)N[C@@H](Cc1c[nH]c2ccccc12)C(=O)N[C@@H](CO)C(=O)O [AE346, O2Oc O2Oc Asp Cha Phe D-Ser D-Arg Tyr Leu Trp Ser-OH] (H-[AEEA][AEEA]D[Cha]F[dS][dR]YLWS-OH; N-terminus assumed)

- IC50 (uPAR wt): 3.5 ± 0.1 nM
Compound: CC(C)C[C@H](NC(=O)[C@H](Cc1ccc(O)cc1)NC(=O)[C@@H](CCCNC(=N)N)NC(=O)[C@@H](CO)NC(=O)[C@H](Cc1ccccc1)NC(=O)[C@H](CC1CCCCC1)NC(=O)[C@H](CC(=O)O)NC(=O)COCCOCCNC(=O)[C@H](CCC(=O)O)NC(=O)[C@@H](N)CCC(=O)O)C(=O)N[C@@H](Cc1c[nH]c2ccccc12)C(=O)N[C@@H](CO)C(N)=O [AE347, Glu Glu O2Oc Asp Cha Phe D-Ser D-Arg Tyr Leu Trp Ser-NH2] (H-EE[AEEA]D[Cha]F[dS][dR]YLWS-NH2; N-terminus assumed)

- IC50 (uPAR wt): 6.7 ± 0.2 nM
Compound: CC(C)C[C@H](NC(=O)[C@H](Cc1ccc(O)cc1)NC(=O)[C@@H](CCCNC(=N)N)NC(=O)[C@@H](CO)NC(=O)[C@H](Cc1ccccc1)NC(=O)[C@H](CC1CCCCC1)NC(=O)[C@H](CC(=O)O)NC(=O)COCCOCCNC(=O)[C@@H](N)CCC(=O)O)C(=O)N[C@@H](Cc1c[nH]c2ccccc12)C(=O)N[C@@H](CO)C(N)=O [AE348, Glu O2Oc Asp Cha Phe D-Ser D-Arg Tyr Leu Trp Ser-NH2] (H-E[AEEA]D[Cha]F[dS][dR]YLWS-NH2; N-terminus assumed)

- IC50 (uPAR wt): 12.5 ± 0.6 nM
Compound: CC(C)C[C@H](NC(=O)[C@H](Cc1ccc(O)cc1)NC(=O)[C@@H](CCCNC(=N)N)NC(=O)[C@@H](CO)NC(=O)[C@H](Cc1ccccc1)NC(=O)[C@H](CC1CCCCC1)NC(=O)[C@H](CC(=O)O)NC(=O)[C@H](CCC(=O)O)NC(=O)[C@@H](N)CCC(=O)O)C(=O)N[C@@H](Cc1c[nH]c2ccccc12)C(=O)N[C@@H](CO)C(=O)O [AE349, Glu Glu Asp Cha Phe D-Ser D-Arg Tyr Leu Trp Ser-OH] (H-EED[Cha]F[dS][dR]YLWS-OH; N-terminus assumed)

More lines, now with the values behind:

Compound: CC1(C)C(/C=C/C=C/C=C/C=C2\N(CCCCS(=O)(=O)O)c3ccc4ccccc4c3C2(C)C)=[N+](CCCCS(=O)(=O)[O-])c2ccc3ccccc3c21 [ICG, indocyanine green, reference compound]
- uptake in the tumor (U87MG tumours [1]): No specific uptake
- max radiance for the tumors (U87MG tumours [1]): 7.51E+06±3.13E+05 radiance efficiency
- tumor-to-background (TBR) ratio (U87MG tumours [1]): 1.04±0.04

Compound: CC(C)C[C@H](NC(=O)[C@H](Cc1ccc(O)cc1)NC(=O)C(CCCNC(=N)N)NC(=O)C(CO)NC(=O)C(Cc1ccccc1)NC(=O)[C@H](CC1CCCCC1)NC(=O)C(CC(=O)O)NC(=O)C(CCC(=O)O)NC(=O)C(CCC(=O)O)NC(=O)CCCCCN1\C(=C/C=C/C=C/C=C/C2=[N+](CCCCS(=O)(=O)[O-])c3ccc4ccccc4c3C2(C)C)C(C)(C)c2c1ccc1ccccc21)C(=O)N[C@@H](Cc1c[nH]c2ccccc12)C(=O)N[C@@H](CO)C(=O)O (stereo partly drawn) [ICG-Glu-Glu-AE105] (X1-[ξE][ξE][ξD][Cha][ξF][ξS][ξR]YLWS-OH)
- TBR (U87MG tumours [2]): 3.58±0.29
- IC50 (purified uPAR): ~80 nM
- IC50 (uPAR H47C-N259C): 990 ± 50 nM
- decrease in fluorescence intensity for the conjugated probe compared with ICG [3]: 2 fold
- IC50 (uPAR wt): 142 ± 13 nM
- uptake in the tumor (U87MG tumours [1]): high uptake
- max radiance for the tumors (U87MG tumours [1]): 3.43E+08±0.34E+08 radiance efficiency
- tumor-to-background (TBR) ratio (U87MG tumours [1]): 3.52±0.167

Compound: IRDye800CW-Glu-Glu-NH—CH2—CH2—O—CH2—CH2—O—CH2—CO—NH—CH2—CH2—O—CH2—CH2—O—CH2—CO-Asp-Cha-Glu-(D)Ser-(D)Arg-Tyr-Leu-Glu-Ser-OH ({IRDye800CW′}-EE[AEEA][AEEA]D[Cha]E[dS][dR]YLES-OH) [IRDye800CW-AE354, reference compound]
- TBR [4]: 3.4
- normalized TBR (ref: active probe) [4]: 0.52
